The structures appear in SMILES notation. The source made the active and inactive calls. The calls are words filed in the database; no cut-off is given here. A value given as a limit tells only on which side of the number the result lay.

A short description of data set [1]: Glutathione peroxidase-like activity assessed as decrease in NADPH level at 20 uM in the presence of H2O2 and glutathione reductase by UV-VIS spectrophotometer analysis (reference value: 37 microM/min). Format: physicochemical.
The nature of data set [2]: Antioxidant activity assessed as FRAP radical scavenging activity by measuring reduction of Fe3+ complex to Fe2+ analogue incubated for 5 mins by FRAP assay. The format is functional. The arrangement: reference not given here.
Data set [3] is described as follows: Glutathione peroxidase-like activity assessed as time to reach completion of the linear part at 20 uM in presence of cumene hydroperoxide by UV-VIS spectrophotometer analysis. Format: physicochemical.
Data set [4] in a line: Antioxidant activity assessed as DPPH radical scavenging activity incubated for 60 min by DPPH assay. Format: functional.
Data set [5] can be described thus: Glutathione peroxidase-like activity assessed as time to reach completion of the linear part at 20 uM in presence of H2O2 by UV-VIS spectrophotometer analysis. Format: physicochemical.
The nature of data set [6]: Glutathione peroxidase-like activity assessed as decrease in NADPH level at 20 uM in the presence of cumene hydroperoxide and glutathione reductase by UV-VIS spectrophotometer analysis (reference value: 7 microM/min). The format is physicochemical.
The nature of data set [7]: Antioxidant activity assessed as time to reach reaction completion. Format: functional.
A short description of data set [8]: Antioxidant activity assessed as anti-radical efficiency. Format: functional.
Data set [9] is described as follows: Cytotoxicity against HuAoSMC cells assessed as metabolic activity at below 100 uM incubated for 24 hrs by MTT assay. The note with it: human, read-out: Activity. The format is toxicity, cell-based.
Data set [10] can be described thus: Antioxidant activity assessed as rate constant. Format: functional.
Data set [11] can be described thus: Cytotoxicity against HuAoSMC cells assessed as metabolic activity at 1 uM incubated for 24 hrs by MTT assay. Format: toxicity, cell-based. The note with it: human. (In general: Tetrazolium assays rely on reduction of a dye to a coloured formazan, in cell work by metabolically active cells.)

A word on the EC50: it is the concentration needed to bring the measured effect to its halfway point. Take `O=c1c2ccccc2[se]n1-c1ccccc1` [EBSELEN]: the Activity in [1] was 75 µM/min; in [6], 33 µM/min. Besides, the outcome in data set [2] was inactive. In addition, the Time in data set [3] stood at 187 s; in data set [5], 80 s. Also, the EC50 entry in data set [4] is listed as “Not Active”.

`COc1ccc(CC2NC(=[Se])NC2=O)cc1` (configuration not stated): the TIME in data set [7] worked out at 0.3 h. Moreover, the Activity is 49 µM/min in [1], 314 µM in data set [2], 1.4 10^-3/min/µM in [8] and 13 µM/min in [6]. The Time in data set [3] came out at 467 s; in data set [5], 140 s. The viability at 24 h, 100 µM in [9] is over 70%. The K in [10] is 1.2 s⁻¹. For the same compound, the EC50 in data set [4] (read-out: EC50) is 38 µM.

With `O=C1NC(=[Se])NC1Cc1ccc(Br)cc1` (configuration not stated), the Activity in [1] is 51 µM/min; in [2], 180 µM; in data set [6] it was 17 µM/min. For the same compound, the results for the Time in data set [3] and in data set [5] were 393 s and 127 s, respectively. For the same compound, the viability at 24 h, 100 µM in data set [9] was over 70%. Besides, the EC50 in data set [4] (read-out: EC50) turned out to be 60 µM.

Consider `O=C1NC(=[Se])NC1Cc1ccc(F)cc1` (configuration not stated), for which the TIME in [7] amounted to 0.4 h. Besides, the Activity in data set [1] is 57 µM/min; in [2], 439 µM; in data set [8] it was 1.05 10^-3/min/µM; in data set [6], 13 µM/min. Besides, the results for the Time in data set [3] and in data set [5] were 460 s and 107 s, respectively. In [9], the viability at 24 h, 100 µM was over 70%. Moreover, the K in data set [10] worked out at 0.89 s⁻¹. Also, the EC50 in data set [4] (read-out: EC50) came out at 39 µM.

With `O=C1NC(=[Se])NC1Cc1cccc2ccccc12` (configuration not stated), in data set [7], the TIME worked out at 0.367 h. The Activity was 39 µM/min in data set [1], 271 µM in data set [2], 1 10^-3/min/µM in data set [8] and 18 µM/min in [6]. Also, the results for the Time in data set [3] and in data set [5] were 360 s and 187 s, respectively. Moreover, the viability at 24 h, 100 µM in data set [9] was over 70%. The K in data set [10] was 0.84 s⁻¹. In data set [4] (read-out: EC50), the EC50 is 44 µM.

As for `O=C1NC(=[Se])NC1Cc1ccccc1` (configuration not stated), the TIME in [7] amounted to 0.7 h. Besides, the Activity in data set [1] is 55 µM/min; in data set [2], 219 µM; in [8] it was 0.63 10^-3/min/µM; in data set [6], 18 µM/min. Also, the Time in [3] came out at 413 s; in data set [5], 113 s. In addition, the viability at 24 h, 100 µM in data set [9] is over 70%. Besides, the K in [10] came out at 0.46 s⁻¹. Also, in data set [4] (read-out: EC50), the EC50 was 37 µM.

As for `O=C1NC(=[Se])NC1Cc1ccc(C(F)(F)F)cc1` (configuration not stated), the TIME in data set [7] turned out to be 0.233 h. The Activity is 63 µM/min in data set [1], 363 µM in data set [2], 2.1 10^-3/min/µM in [8] and 32 µM/min in data set [6]. The figures for the Time in [3] and in data set [5] were 180 s and 100 s, respectively. For the same compound, in data set [9], the viability at 24 h, 100 µM is over 70%. Also, the K in data set [10] was found to be 1.6 s⁻¹. Also, in [4] (read-out: EC50), the EC50 worked out at 35 µM.

With `O=C1O[C@H]([C@@H](O)CO)C(O)=C1O` [ASCORBIC ACID], the Activity in data set [2] was 1630 µM. Moreover, the 50% effective concentration (EC50) in data set [4] (read-out: EC50) is 17.8 µM.

Turning to `Cc1ccc(CC2NC(=[Se])NC2=O)cc1` (configuration not stated), the Activity in [1] is 55 µM/min; in data set [2], 116 µM; in data set [6] it was 18 µM/min. Moreover, the Time in [3] was 367 s; in [5], 107 s. Further, in [9], the viability at 24 h, 100 µM was over 70%. Moreover, in [4] (read-out: EC50), the EC50 amounted to 89 µM.

Take `NCC[Se][Se]CCN`: the Activity in [1] was 53 µM/min; in data set [11], “Toxic”; in data set [6], 66 µM/min. Further, the Time is given as 93 s in data set [3] and 153 s in data set [5].

As for `O=C1NC(=[Se])NC1Cc1ccc(Cl)cc1` (configuration not stated), in [7], the TIME turned out to be 0.183 h. Further, the Activity in data set [1] is 54 µM/min; in data set [2], 421 µM; in data set [8], 2.1 10^-3/min/µM; in data set [6], 27 µM/min. The Time in [3] was found to be 253 s; in [5], 113 s. In addition, the viability at 24 h, 100 µM in [9] is over 70%. In [10], the K was 2.28 s⁻¹. Besides, in data set [4] (read-out: EC50), the EC50 amounted to 44 µM.

Regarding `N[C@@H](CCC(=O)N[C@@H](CS)C(=O)NCC(=O)O)C(=O)O` [GLUTATHIONE], the TIME in data set [7] came to 0.483 h. Further, the Activity in data set [2] was 94 µM; in data set [8] it was 0.69 10^-3/min/µM. Further, in [10], the K is 0.53 s⁻¹. Further, the EC50 in data set [4] (read-out: EC50) was 50 µM.

The values are drawn from ChEMBL document CHEMBL5365535, “Selenoneine-inspired selenohydantoins with glutathione peroxidase-like activity” (Bioorg Med Chem, 2023).
